From patent US20030135023A1, “Peptide structures useful for competitive modulation of dipeptidyl peptidase IV catalysis” (priority 2001, published 2003)
Several values for one entry are separate records, joined by “and”; a condition that tells them apart may be missing. Equal entries are not always repeated. Where two headings read alike, the source gives them in different places. Square brackets hold non-standard residues; d marks the D form. Peptide text beside a SMILES is read from it. Tle = CC(C)(C)[C@H](N)C(=O)O

Tests used:
plasma DP IV = target: T1, plasma DP IV (Rattus norvegicus, UniProt P14740); experiment: Plasma DP IV activity after intravasal and oral administration in Wistar rats; type: in vivo; conditions: for inhibition at 100 mg/kg: rat, Wistar rats
T1 construct: The assay mixture consisted of 80 μl reagent and 20 μl plasma; from tissue; host or cells: plasma of Wistar rats
Experimental: Rats with intact catheter function were given the test substances intravasal (intraarterial) or oral, respectively, in random order (N=3 Wistar rats in each group). As positive control, […]. isoleucine thiazolidine*fumarate were administered intravasal.
After overnight fasting, 100 μl samples of heparinized arterial blood were collected at −30, −5, and 0 min into ice-cooled Eppendorf tubes (see below). The test substances were dissolved freshly in 1.0 ml saline (0.154 mol/l) and were given at 0 min either oral via a feeding tube ([…], 75 mm; Fine Science Tools, Heidelberg, Germany) or intravasal. For the intravasal route, the catheter was immediately flushed with 30 μl saline and an additional 1 ml of saline was given orally via the feeding tube.
Arterial blood samples were taken thereafter at 5, 10 (only in a limited number of experiments), 20, 40, 60 and 120 min from the carotid catheter of the conscious unrestrained rats and were always given into ice cooled Eppendorf tubes (Eppendorf-Netheler-Hinz, Hamburg, Germany) filled with 10 μl 1 M citrate buffer pH 3.0 for prevention of further hydrolysis of tripeptides by plasma DP IV activity. Eppendorf tubes were centrifuged immediately (12000 rpm for 2 min, Hettich Zentrifuge EBA 12, Tuttlingen; Germany): The plasma fractions were store on ice until analysis or were deeply frozen at −20 ° C. until analysis.
Plasma DP IV activity: The assay mixture consisted of 80 μl reagent and 20 μl plasma. Kinetic measurements of the formation of the yellow product 4-nitroaniline were performed at 390 nm for 1 min at 30° C. after 2 min pre-incubation at the same temperature. The activity was expressed as arbitrary units [AU] and DP IV activity [mU/ml].
The absolute values of plasma DP IV activity, the relative change of plasma DP IV activity and the time and extent of maximal inhibition were calculated. Data presentation included the presentation of area under the curve (AUC), which was used for evaluation of extent of inhibition of plasma DP IV activity during the two hours of observation. AUC was calculated using the trapezoidal rule.
To compare relative changes of parameters under the conditions of different initial values of DP IV activity an uniform standardised mean (values) was set up at the beginning of the test (see Figures and Tables).
Statistical evaluations were performed with Microsoft Excel® 97. All variables are presented as mean and standard deviation (SD). Treatment groups were compared by Student's t-test, within-group changes by paired t-test. Two-tailed values of p<0.05 were considered significant.

[1] = tested on: diabetic Zucker rats (fa/fa); experiment: Oral glucose tolerance test (OGTT) in diabetic Zucker rats; type: in vivo; conditions: 100 mg/kg b.w. p.o.
Experimental: N=30 male Zucker rats (fa/fa), mean age 11 weeks (5-12 weeks), mean body weight 350 g (150-400 g), were purchased from Charles River (Sulzfeld, Germany). They were kept for >12 weeks until all the fatty Zucker rats had the characteristics of manifest Diabetes mellitus.
After overnight fasting, the fatty Zucker rats were given placebo, positive control and test substance, respectively, via feeding tube orally (15 G, 75 mm; Fine Science Tools, Heidelberg, Germany) at −10 min. An oral glucose tolerance test (OGTT) with 2 g/kg b.w. glucose as a 40% solution (B. Braun Melsungen, Melsungen, Germany) was implemented at ±0 min. The glucose was administered via a second feeding tube. Arterial blood samples from the carotid catheter were collected at −30 min, −15 min, ±0 min and at 5, 10, 15, 20, 30, 40, 60, 90 and 120 min into 20 μl glass capillaries, which were placed in standard tubes filled with 1 ml solution for hemolysis (blood glucose measurement).
Blood glucose: Glucose levels were measured using the glucose oxidase procedure (Super G Glukosemeβgerät; Dr. Müller Gerätebau, Freital, Germany).

[2] = oral 100 mg/kg b.w., individual animals, 100 mg/kg

T1 sequence (P14740 37-767 limits assumed): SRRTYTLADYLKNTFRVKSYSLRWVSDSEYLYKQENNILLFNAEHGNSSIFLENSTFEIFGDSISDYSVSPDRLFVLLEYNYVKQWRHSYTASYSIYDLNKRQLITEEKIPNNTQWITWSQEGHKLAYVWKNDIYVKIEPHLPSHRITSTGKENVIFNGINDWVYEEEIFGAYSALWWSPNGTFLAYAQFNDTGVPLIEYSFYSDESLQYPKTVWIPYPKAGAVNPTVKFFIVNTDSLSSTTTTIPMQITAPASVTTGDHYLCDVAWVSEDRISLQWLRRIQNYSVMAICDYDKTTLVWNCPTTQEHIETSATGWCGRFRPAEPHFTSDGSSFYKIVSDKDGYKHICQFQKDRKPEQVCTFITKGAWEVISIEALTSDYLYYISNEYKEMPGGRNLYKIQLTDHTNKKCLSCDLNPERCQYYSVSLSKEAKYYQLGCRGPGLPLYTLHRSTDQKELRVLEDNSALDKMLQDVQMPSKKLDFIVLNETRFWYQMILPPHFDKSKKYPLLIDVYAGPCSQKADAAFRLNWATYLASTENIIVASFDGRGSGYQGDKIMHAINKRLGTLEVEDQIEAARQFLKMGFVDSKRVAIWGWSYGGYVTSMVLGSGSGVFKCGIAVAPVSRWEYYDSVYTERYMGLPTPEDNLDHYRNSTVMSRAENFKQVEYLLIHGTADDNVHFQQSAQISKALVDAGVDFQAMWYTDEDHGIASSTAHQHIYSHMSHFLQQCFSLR

## CC[C@H](C)[C@H](NC(=O)[C@@H]1CCCN1C(=O)[C@@H](N)C(C)(C)C)C(=O)O [t-butyl-Gly-Pro-Ile] (H-[Tle]-Pro-Ile-OH; N-terminus and C-terminus assumed)
Plasma DP IV; oral 100 mg/kg b.w., 2.5 min, Mean
  Plasma DP IV activity: 17.25 mU/ml
Plasma DP IV; oral 100 mg/kg b.w., 2.5 min, Standardized Mean
  Plasma DP IV activity: 17.08 mU/ml
Plasma DP IV; oral 100 mg/kg b.w., 2.5 min, individual animals, 100 mg/kg
  Plasma DP IV activity: 20.61 mU/ml and 9.21 mU/ml and 21.93 mU/ml
Plasma DP IV; oral 100 mg/kg b.w., 5 min, Mean
  Plasma DP IV activity: 19.15 mU/ml
Plasma DP IV; oral 100 mg/kg b.w., 5 min, Standardized Mean
  Plasma DP IV activity: 18.98 mU/ml
Plasma DP IV; oral 100 mg/kg b.w., 5 min, individual animals, 100 mg/kg
  Plasma DP IV activity: 23.68 mU/ml and 13.16 mU/ml and 20.61 mU/ml
Plasma DP IV; oral 100 mg/kg b.w., 7.5 min, Mean
  Plasma DP IV activity: 17.25 mU/ml
Plasma DP IV; oral 100 mg/kg b.w., 7.5 min, Standardized Mean
  Plasma DP IV activity: 17.08 mU/ml
Plasma DP IV; oral 100 mg/kg b.w., 7.5 min, individual animals, 100 mg/kg
  Plasma DP IV activity: 21.05 mU/ml and 12.28 mU/ml and 18.42 mU/ml
Plasma DP IV; oral 100 mg/kg b.w., 10 min, Mean
  Plasma DP IV activity: 21.64 mU/ml
Plasma DP IV; oral 100 mg/kg b.w., 10 min, Standardized Mean
  Plasma DP IV activity: 21.46 mU/ml
Plasma DP IV; oral 100 mg/kg b.w., 10 min, individual animals, 100 mg/kg
  Plasma DP IV activity: 21.93 mU/ml and 25.88 mU/ml and 17.11 mU/ml
Plasma DP IV; oral 100 mg/kg b.w., 15 min, Mean
  Plasma DP IV activity: 21.05 mU/ml
Plasma DP IV; oral 100 mg/kg b.w., 15 min, Standardized Mean
  Plasma DP IV activity: 20.88 mU/ml
Plasma DP IV; oral 100 mg/kg b.w., 15 min, individual animals, 100 mg/kg
  Plasma DP IV activity: 29.39 mU/ml and 15.79 mU/ml and 17.98 mU/ml
Plasma DP IV; oral 100 mg/kg b.w., 20 min, Mean
  Plasma DP IV activity: 17.98 mU/ml
Plasma DP IV; oral 100 mg/kg b.w., 20 min, Standardized Mean
  Plasma DP IV activity: 17.81 mU/ml
Plasma DP IV; oral 100 mg/kg b.w., 20 min, individual animals, 100 mg/kg
  Plasma DP IV activity: 25.00 mU/ml and 10.97 mU/ml
Plasma DP IV; oral 100 mg/kg b.w., 40 min, Mean
  Plasma DP IV activity: 19.30 mU/ml
Plasma DP IV; oral 100 mg/kg b.w., 40 min, Standardized Mean
  Plasma DP IV activity: 19.12 mU/ml
Plasma DP IV; oral 100 mg/kg b.w., 40 min, individual animals, 100 mg/kg
  Plasma DP IV activity: 21.49 mU/ml and 8.77 mU/ml and 27.63 mU/ml
Plasma DP IV; oral 100 mg/kg b.w., 60 min, Mean
  Plasma DP IV activity: 19.44 mU/ml
Plasma DP IV; oral 100 mg/kg b.w., 60 min, Standardized Mean
  Plasma DP IV activity: 19.27 mU/ml
Plasma DP IV; oral 100 mg/kg b.w., 60 min, individual animals, 100 mg/kg
  Plasma DP IV activity: 21.93 mU/ml (2×) and 14.47 mU/ml
Plasma DP IV; oral 100 mg/kg b.w., 120 min, Mean
  Plasma DP IV activity: 20.91 mU/ml
Plasma DP IV; oral 100 mg/kg b.w., 120 min, Standardized Mean
  Plasma DP IV activity: 20.73 mU/ml
Plasma DP IV; oral 100 mg/kg b.w., 120 min, individual animals, 100 mg/kg
  Plasma DP IV activity: 16.23 mU/ml and 23.25 mU/ml (2×)
Plasma DP IV; oral 100 mg/kg b.w., Mean
  DP IV-AUC: −51.5 AU · min
  Drop of plasma DP IV activity: 10.53 mU/ml
Plasma DP IV; [2]
  DP IV-AUC: 155.2 AU · min and −961.1 AU · min and 651.3 AU · min
  Drop of plasma DP IV activity: 6.58 mU/ml and 23.25 mU/ml and 1.75 mU/ml
Plasma DP IV; oral 100 mg/kg b.w., p<0.05 vs. intra-vasal
  DP IV-AUC0-120 min: −336±162 mU·min·ml^−1
Plasma DP IV; iv, i.v., 100 mg/kg, read-out: DPIV inhibition at tmax, i.v.
  inhibition at 100 mg/kg: 71%
Plasma DP IV; po, p.o., 100 mg/kg, read-out: DPIV inhibition at tmax, p.o.
  inhibition at 100 mg/kg: 28%
[1]; AUC test compound vs AUC Control
  Improvement of glucose tolerance: 14.8%
[1]; OGTT 2 g/kg glucose
  AUC test compound (glucose, OGTT): 653.2 mmol·min/L
